This note sets out measurements from patent US20220168384A1, “Anti-Bacterial Combination Therapy” (McMaster University, priority 2019, published 2022).

Entries after “also recorded” stand apart in the source; their conditions may differ.

The subject of data set [1] is P. aeruginosa PA14. Kind of data set: Dose response and checkerboard assays against PA14. The settings on record: PA14; for interaction with DSX: 2D checkerboard; for effect of 100 μM Fe^3+ on inhibitory activity: VAN + compound checkerboards; for synergy with TS: IC50 isobolograms, 10:90; for relative potency of synergy with TS: checkerboards, isobolograms and CI values. It counts as cell-based, Pseudomonas aeruginosa. As for the experimental part: (§1) Checkerboard assays were set-up using Nunc 96-well plates in an 8-well by 8-well format. Two columns were allocated for vehicle controls and two columns for sterility controls. Vehicle controls contained 2 μL DMSO plus 2 μL DFP solvent for checkerboards with TS and DFP or 4 μL DMSO for TS and DSX, in 146 μL of 10:90 medium or 10% serum inoculated with PA14 or PAO1-KP as described in Growth Curves. Sterile controls contained the same components in 10:90 medium or 10% serum, without cells. Serial dilutions of TS—with 17 μg/mL being the highest final concentration—were added along the y axis of the checkerboard (increasing concentration from bottom to top) whereas serial dilutions of DFP or DSX—with 512 μg/mL being the highest final concentration—were added along the x axis (increasing concentration from left to right). The final volume of each well was 150 μL and each checkerboard was repeated at least three times. Plates were incubated and the final OD600 determined as detailed above.
Culture conditions, growth assays, dose response and checkerboard assays using P. aeruginosa PA14 were performed as described in Example 1. Briefly, overnight cultures were grown in LB for 16 h, 37° C., 200 rpm then subcultured (1:500 dilution) into 10:90 for 6 h. Subcultures were standardized to OD600 of 0.10 and diluted 1:500 in fresh 10:90 before use. For the dose response assay, serial dilutions of compounds were added at 75 times the final concentration and diluted with 10:90 with cells to reach the desired final concentration. This was done in triplicate for technical replicates. Vehicle and sterile controls were included. The checkerboard assay was done similarly to the dose response assay but in an 8×8 format in a 96-well Nunc plate, with concentration of one drug increasing along the y-axis and the other along the x-axis. Sterility and vehicle controls were included with two columns allocated for each control. At least three biological replicates were repeated for the dose response and checkerboard assays.

In data set [2] the test system is P. aeruginosa clinical isolates. Description: Clinical isolates testing, P. aeruginosa. It counts as cell-based, Pseudomonas aeruginosa. As for the experimental part: (§2) Clinical isolates of P. aeruginosa and A. baumannii were inoculated from −80° C. stocks into 200 μL LB broth and grown with shaking at 200 rpm, 16 h, 37° C. in Nunc 96-well plates. The overnight cultures were subcultured (1:25 dilution) into 10:90 and grown with shaking at 200 rpm, 2 h, 37° C. Vehicle controls consisted of 4 μL of DMSO, 144 μL 10:90 and 2 μL of subculture. Sterile controls consisted of 4 μL of DMSO and 146 μL 10:90. […]. The final volume of each well was 150 μL and each checkerboard was repeated at least three times. Plates were incubated with shaking at 200 rpm, 16 h, 37° C. and OD600 was measured (Multiskan Go—Thermo Fisher Scientific). The results were plotted as percent of control (wells containing only DMSO) using Prism (GraphPad).
(§3) Clinical isolates were grown and tested as described in Example 1. Briefly, clinical isolates were inoculated from glycerol stocks stored at −80° C. into Nunc 96-well plates and grown overnight at 37° C., for 16 h with shaking in LB (200 rpm). Overnights were subcultured (1:25) into fresh 10:90 medium and grown for 2 h under the same growth conditions. Subcultures were diluted 1:75 in fresh 10:90. Compounds were diluted 1:75 to obtain the final concentration. DOXY and CLI were added at a final concentration of 1 μg/mL, CO was used at 2 μg/mL, TRO was used at 4 μg/mL, TS was used at 8.3 μg/mL, and DSX was used at 32 μg/mL. Vehicle and sterility controls were included. Plates were incubated overnight with the same conditions. The OD600 was read (Multiscan Go—Thermo Fisher Scientific), analyzed using Excel, and the data plotted using Prism (GraphPad).
(§4) Culture conditions, checkerboard assays using P. aeruginosa PA14 and dose-response assays were performed as described in Example 1. In addition to TS, other thiopeptides tested were siomycin A (SM), thiocillin I (TC), micrococcin P1 (MC), nosiheptide (NH), berninamycin A (BER), and geninthiocin A (GEN). For dose response assays of the combinations conducted in 10:90, DSX concentration was constant at 64 μg/mL.

Data set [3] in a line: Chrome azurol S (CAS) plate assay. Type of data set: physicochemical. The settings on record: 10 μL of 2 mg/mL; room temperature 1 h.
Data set [4] in a line: UV-Vis absorption spectra assay for iron chelation. Type of data set: physicochemical. The settings on record: 300 μM compound and FeCl3; 300-700 nm; 1 h. As for the experimental part: Equimolar concentrations of compound and FeCl3 were added in deionized H2O to a final concentration of 300 μM and a spectrum of wavelengths from 300 nm to 700 nm read after 1 h incubation at room temperature. The black dashed line is the spectrum of the compound in the absence of iron. The black solid line is the spectrum after the addition of iron. […] Chloramphenicol and ampicillin were used as negative controls. Each assay was performed at least 3 times and averaged values are shown.
Compounds were arrayed in Nunc 96 microwell plates. Vehicle controls contained Milli-Q H2O with 1:75 dilution of each compound at a final concentration of […]. The experimental set-up contained the same components as the vehicle control, with the addition of […] FeCl3. The final volume in each well was 150 μL. The plate was incubated at room temperature for one hour and absorption spectra from 300 nm to 700 nm was read in 2 nm increments (Multiskan Go—Thermo Fisher Scientific).

Data set [5] relates to P. aeruginosa PA14. Description: Checkerboards pinned to LB agar (bactericidal activity). Type of data set: cell-based, Pseudomonas aeruginosa. The settings on record: overnight 37° C. As for the experimental part:
Checkerboards were pinned to LB agar plates using a sterile 96 pin tool. Plates were incubated overnight at 37° C. Independent experiments were conducted 3 times and a representative plate is shown.

Another data set concerns P. aeruginosa PAO1. Kind of data set: Checkerboard assays of TS with DFP, DSX or 10% serum. Particulars: 10:90. It counts as cell-based, Pseudomonas aeruginosa. As for the experimental part:
Human serum (Corning) and mouse serum (Equitech-Bio) were stored at −20° C. Sera were aliquoted into 5-ml culture tubes by thawing once at 37° C. for 30 min with occasional gentle mixing. Culture tubes were frozen at −20° C. until use. To make 10% serum solutions, serum was thawed for 10 min at 37° C. and then heat inactivated at 57° C. for 30 min. Two milliliters of heat-inactivated serum were added to 18 ml of 10:90 medium and gently mixed. This 10% serum solution was used for checkerboard assays.
as §1

Data set [6] can be described thus: Qualitative assay for antibiotic-Fe3+ coloured complexes. It counts as physicochemical. Particulars: stock antibiotic + FeCl3 final 10 μM; room temperature 1 h. As for the experimental part:
[…]. Binding of iron by a compound causes spectral shifts that can detected visually. Five μL of stock concentration antibiotic was added to 5 μL of FeCl3 to a final FeCl3 concentration of 10 μM and incubated at room temperature for one hour. Negative controls without iron are indicated by a negative sign and droplets with FeCl3 are indicated with a positive sign; vehicle controls with Milli-Q H2O and DMSO were included.
Compounds were arrayed in Nunc 96 microwell plates. Vehicle controls contained Milli-Q H2O with 1:75 dilution of each compound at a final concentration of […]. The experimental set-up contained the same components as the vehicle control, with the addition of […] FeCl3. The final volume in each well was 150 μL. The plate was incubated at room temperature for one hour and absorption spectra from 300 nm to 700 nm was read in 2 nm increments (Multiskan Go—Thermo Fisher Scientific). […]

Data set [7] deals with Acinetobacter baumannii clinical isolates. Kind of data set: Clinical isolates testing, A. baumannii. It counts as cell-based. The settings on record: 10:90. As for the experimental part:
as §2, §3, §4

The conditions of data set [8]: aqueous media.
The mark [9] stands for this setting: Pseudomonas aeruginosa, concentration used in clinical isolate testing, read-out: ⅛^th the MIC of PA14.

For the compound `Cc1cc(C2CCCCC2)n(O)c(=O)c1` [CO, Ciclopirox Olamine], in the data set with P. aeruginosa PA14 [1], the “interaction with DSX” value is “indifferent”, the “effect of 100 μM Fe^3+ on inhibitory activity” value (“effect … on inhibitory activity” below) is “abrogated” and the “relative potency of synergy with TS” value is listed as “most potent synergy; also recorded: greater synergy”. In the data set on P. aeruginosa PA14 [1] (setting [9]), the one-eighth of MIC against PA14 (test concentration) worked out at 2 µg/mL. In the data set on P. aeruginosa PA14 [1] (checkerboard), the “synergy with TS” value is recorded as “synergized” and the “interaction with GN” value is “antagonism”. Besides, the “growth of C0379, triple combinations with TS+DSX at higher concentrations of the compound” value in data set [2] (TS 8.3 and DSX 32 μg/mL) is reported as “could inhibit its growth”. Besides, the “decolourization of CAS agar (relative affinity for iron)” value in data set [3] was “greatest decolourization”. In addition, the “absorption spectrum after addition of FeCl3” value (shortened to “absorption spectrum”) in data set [4] is “showed shifts in their absorption spectra”. Besides, the “mode of activity of compound alone” value in the data set on P. aeruginosa PA14 [5] is “bacteriostatic”.
On to `O=c1cccccc1O` [TRO, Tropolone], for which, in the data set with P. aeruginosa PA14 [1], the “interaction with DSX” value is reported as “indifferent”, the “effect … on inhibitory activity” value is “abrogated” and the “relative potency of synergy with TS” value was “greater synergy”. Moreover, the MIC in the data set with P. aeruginosa PA14 [1] (setting [9]) came to 4 µg/mL. Moreover, the “synergy with TS” value in the data set with P. aeruginosa PA14 [1] (checkerboard) is given as “synergized”. The “susceptibility of C0379 compared to PA14” value in [2] is listed as “less susceptible”. Moreover, the “decolourization of CAS agar (relative affinity for iron)” value in data set [3] is recorded as “greatest decolourization”. In [4], the “absorption spectrum” value is given as “showed shifts in their absorption spectra”. The “mode of activity of compound alone” value in the data set with P. aeruginosa PA14 [5] is listed as “bacteriostatic”.
On to `Cc1c(O)c(=O)ccn1C` [DFP, deferiprone], for which the “effect of chelator on TS activity” value in the data set with P. aeruginosa PAO1 (checkerboard with TS) was “potentiated TS activity”. For the same compound, the “activity of chelator on its own against P. aeruginosa” value with P. aeruginosa PAO1 (checkerboard, up to 512 μg/ml) is given as “neither chelator had activity”. For the same compound, the “colour change upon addition of FeCl3” value in [6] is given as “dark red/violet”. The “absorption spectrum” value in [4] is listed as “shifted”.
Consider `Oc1c(I)cc(Cl)c2cccnc12` [CLI, Clioquinol], for which, in the data set with P. aeruginosa PA14 [1], the “interaction with DSX” value is given as “antagonism”, the “effect … on inhibitory activity” value was “abrogated” and the “relative potency of synergy with TS” value is given as “most potent synergy”. Also, in the data set on P. aeruginosa PA14 [1] (setting [9]), the one-eighth of MIC against PA14 (test concentration) stood at 1 µg/mL. Besides, the “synergy with TS” value in the data set with P. aeruginosa PA14 [1] (checkerboard) is “synergized”. Further, in data set [2] (TS 8.3 and DSX 32 μg/mL where combined), the “growth of C0379 with CLI at 8 μg/mL” value is “did not reduce growth below MIC”. Besides, the “susceptibility of A. baumannii strain C0286” value in [7] was “susceptible”. For the same compound, the “decolourization of CAS agar (relative affinity for iron)” value in [3] is “Decolourization was not observed”. The “mode of activity of compound alone” value in the data set on P. aeruginosa PA14 [5] is recorded as “bacteriostatic”. Also, the “concentrations at which the compound precipitated” value in data set [8] is reported as “above 8 μg/mL”.

A word on the MIC: it is the smallest concentration in the dilution series that meets the test's criterion for growth inhibition.
